In US6696559B1, “Antimicrobial peptides and methods of use” (The Regents of the University of California, priority 1996, dated 2004):
Entries after “also recorded” stand apart in the source; their conditions may differ. Where no end group is shown, it is not given here.

Legend:
S. aureus 502A = assay: microbicidal suspension assay; assay type: cell-based
Experimental: (§1) Antimicrobial assay. E. coli ML35, S. aureus 502A, C. albicans, and C. neoformans were used as target organisms in a microbicidal suspension assay as previously described (Selsted, M. E., Genetic Engineering: Principles and Methods, J. K. Setlow, Plenum Press, New York, 1993, pp. 131-147).
(§2) Natural and synthetic BGP-A and synthetic BGP-A-amide were tested for their microbicidal activities against S. aureus 502A, E. coli ML35, C. albicans, and C. neoformans. Using a microbicidal suspension assay (Selsted, M. E., Genetic Engineering: Principles and Methods, J. K. Setlow, Plenum Press, New York, 1993, pp.131-147), each peptide was tested against the four test organisms with peptide concentrations ranging from 5-100 μg/ml. The bactericidal and fungicidal activities of the three peptide preparations were assessed using a standard microbicidal assay. Organisms were grown to mid-log phase, harvested, and suspended to 2×10^7 CFU/ml. The incubation mixture contained 1-2×10^6 CFU/ml, 10 mM sodium phosphate buffer, pH 7.4, and peptide at concentrations up to 100 μg/ml. After 1 h of incubation at 37° C. (4 h incubations for C. neoformans), serial 10-fold dilutions were plated on Trypticase Soy Agar (bacteria) or S. abaraud dextrose agar (fungi), and incubated for 24-48 h at 37° C. Killing was quantitated by colony counting, and plotted as a function of peptide concentration in the incubation.

E. coli ML35 = assay: microbicidal suspension assay; assay type: cell-based
Experimental: as §1, §2

C. neoformans = assay: microbicidal suspension assay; assay type: cell-based
Experimental: as §1, §2

C. albicans = assay: microbicidal suspension assay; assay type: cell-based
Experimental: as §1, §2

E. coli = conditions: Selsted et al., J. Biol. Chem. 267:4292-4295, 1992; cited from earlier work
S. aureus = conditions: Selsted et al., J. Biol. Chem. 267:4292-4295, 1992; cited from earlier work
[1] = 1 h incubation, synthetic versus natural peptide, listed as synthetic BGP-A
[2] = peptide 5-100 μg/ml, 10 mM sodium phosphate buffer, pH 7.4, 1 h at 37° C., FIG. 7

Row | Substance | microbicidal potency compared with natural BGP-A (S. aureus 502A; [1]) | microbicidal activity (reduction in colony forming units) (S. aureus 502A; [2]) | microbicidal potency compared with natural BGP-A (E. coli ML35; [1]) | microbicidal activity (reduction in colony forming units) (E. coli ML35; [2]) | microbicidal potency compared with natural BGP-A (C. neoformans; 4 h incubation, synthetic versus natural peptide, listed as synthetic BGP-A) | microbicidal activity (reduction in colony forming units) (C. neoformans; peptide 5-100 μg/ml, 10 mM sodium phosphate buffer, pH 7.4, 4 h at 37° C., FIG. 7) | microbicidal potency compared with natural BGP-A (C. albicans; [1]) | microbicidal activity (reduction in colony forming units) (C. albicans; [2]) | bactericidal activity (E. coli) | bactericidal activity (S. aureus)
1 | YKIIQQWPHYRRV [BGP-A, thirteen-residue peptide antibiotic expressed in bovine granulocytes, …; tested as natural and synthetic preparations] | equal in potency; also recorded: equivalent killing activity | microbicidal | equal in potency; also recorded: equivalent killing activity | microbicidal | equal in potency; also recorded: equivalent killing activity | microbicidal | equal in potency; also recorded: equivalent killing activity | microbicidal | – | –
2 | indolicidin: novel tridecapeptide amide from bovine neutrophils, cationic, unusually rich in tryptophan (ILPWKWPWWPWRR-NH2; UniProt P33046 131-143, looked up) | – | – | – | – | – | – | – | – | potent bactericidal activity | potent bactericidal activity
